Test results: PubChem BioAssay (NCI)
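96-well plates; 48 h exposure; 5 concentrations. Endpoints by linear interpolation between flanking doses. Not reached: highest tested concentration assigned. GI50 = concentration required for 50% inhibition of growth. The concentration for full growth arrest is given as TGI.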

Experiments:
Test in all cases: growth of human tumour cells (NCI), 48 h
[1] = test system: A549 NSCLC
[2] = test system: OVCAR-3 ovarian
[3] = test system: UACC-62 melanoma
[4] = test system: LOX IMVI melanoma
[5] = test system: SNB-75 CNS
[6] = test system: SF-295 CNS
[7] = test system: K-562 leukemia
[8] = test system: UO-31 renal
[9] = test system: NCI-H522 lung
[10] = test system: ACHN renal
[11] = test system: OVCAR-8 ovarian
[12] = test system: IGROV1 ovarian
[13] = test system: CAKI-1 renal
[14] = test system: UACC-257 melanoma
[15] = test system: SN12C renal
[16] = test system: T-47D breast
[17] = test system: 786-0 renal
[18] = test system: OVCAR-5 ovarian
[19] = test system: CCRF-CEM leukemia
[20] = test system: HCC-2998 colon
[21] = test system: SK-MEL-28 melanoma
[22] = test system: HCT-116 colon
[23] = test system: SF-539 CNS
[24] = test system: MDA-MB-231 breast
[25] = test system: SW-620 colon
[26] = test system: HL-60(TB) leukemia
[27] = test system: A498 renal
[28] = test system: NCI-H460 lung
[29] = test system: M14 melanoma
[30] = test system: MOLT-4 leukemia
[31] = test system: NCI-H226 lung
[32] = test system: EKVX NSCLC
[33] = test system: SK-MEL-5 melanoma
[34] = test system: NCI-H23 lung
[35] = test system: PC-3 prostate
[36] = test system: HS 578T breast
[37] = test system: BT-549 breast
[38] = test system: HCT-15 colon
[39] = test system: SK-OV-3 ovarian
[40] = test system: SR leukemia
[41] = test system: HOP-62 NSCLC
[42] = test system: MALME-3M melanoma
[43] = test system: HT29 colon
[44] = test system: MCF7 breast
[45] = test system: SF-268 CNS
[46] = test system: TK-10 renal
[47] = test system: COLO 205 colon
[48] = test system: RXF 393 renal
[49] = test system: U251 CNS
[50] = test system: SK-MEL-2 melanoma
[51] = test system: RPMI-8226 leukemia
[52] = test system: OVCAR-4 ovarian
[53] = test system: DU-145 prostate
[54] = test system: MDA-MB-468 breast
[55] = test system: SNB-19 CNS
[56] = test system: MDA-MB-435
[57] = test system: HOP-92 NSCLC
[58] = test system: KM12 colon

COc1ccc(-c2ccnc(SCc3cc4cc(Cl)ccc4[nH]c3=O)n2)cc1
GI50 [1]: 15.6 µM
TGI [1]: > 100 µM
GI50 [2]: 9.93 µM
TGI [2]: 27.2 µM
GI50 [3]: 14.8 µM
TGI [3]: 53.2 µM
GI50 [4]: 15 µM
TGI [4]: > 100 µM
GI50 [5]: 1.69 µM
TGI [5]: 3.98 µM
GI50 [6]: 5.49 µM
TGI [6]: 26.8 µM
GI50 [7]: 31.2 µM
TGI [7]: > 100 µM
GI50 [8]: 14.5 µM
TGI [8]: 54.4 µM
GI50 [9]: 5.18 µM
TGI [9]: 32.4 µM
GI50 [10]: 5.64 µM
TGI [10]: 19.8 µM
GI50 [11]: 4.9 µM
TGI [11]: > 100 µM
GI50 [12]: 27.1 µM
TGI [12]: > 100 µM
GI50 [13]: 7.7 µM
TGI [13]: 27.1 µM
GI50 [14]: 16.4 µM
TGI [14]: 82 µM
GI50 [15]: 11.6 µM
TGI [15]: > 100 µM
GI50 [16]: 19.7 µM
TGI [16]: > 100 µM
GI50 [17]: 15.1 µM
TGI [17]: 36.5 µM
GI50 [18]: 21 µM
TGI [18]: 85.8 µM
GI50 [19]: 16 µM
TGI [19]: > 100 µM
GI50 [20]: 27.6 µM
TGI [20]: > 100 µM
GI50 [21]: 7.39 µM
TGI [21]: 31.6 µM
GI50 [22]: 14 µM
TGI [22]: > 100 µM
GI50 [23]: 3.16 µM
TGI [23]: 14.8 µM
GI50 [24]: 9.03 µM
TGI [24]: 32.2 µM
GI50 [25]: 26.2 µM
TGI [25]: > 100 µM
GI50 [26]: > 100 µM
TGI [26]: > 100 µM
GI50 [27]: 17.5 µM
TGI [27]: 46.2 µM
GI50 [28]: 5.63 µM
TGI [28]: 58.7 µM
GI50 [29]: 25 µM
TGI [29]: > 100 µM
GI50 [30]: 38.6 µM
TGI [30]: > 100 µM
GI50 [31]: 2.96 µM
TGI [31]: 10.4 µM
GI50 [32]: 12.2 µM
TGI [32]: 64.9 µM
GI50 [33]: 14.2 µM
TGI [33]: 71.6 µM
GI50 [34]: 13.7 µM
TGI [34]: 45.1 µM
GI50 [35]: 6.9 µM
TGI [35]: 45.7 µM
GI50 [36]: 2.77 µM
TGI [36]: 9.75 µM
GI50 [37]: 6.21 µM
TGI [37]: 33.2 µM
GI50 [38]: 29 µM
TGI [38]: > 100 µM
GI50 [39]: 4.97 µM
TGI [39]: 21.2 µM
GI50 [40]: 21.6 µM
TGI [40]: > 100 µM
GI50 [41]: 3.45 µM
TGI [41]: 16.6 µM
GI50 [42]: 4.72 µM
TGI [42]: 27.4 µM
GI50 [43]: 53.6 µM
TGI [43]: > 100 µM
GI50 [44]: 8.74 µM
TGI [44]: 58.1 µM
GI50 [45]: 3.41 µM
TGI [45]: 20.4 µM
GI50 [46]: 26.3 µM
TGI [46]: 90 µM
GI50 [47]: 44.8 µM
TGI [47]: > 100 µM
GI50 [48]: 2.27 µM
TGI [48]: 8.31 µM
GI50 [49]: 13.5 µM
TGI [49]: 46.6 µM
GI50 [50]: 14.6 µM
TGI [50]: 39.2 µM
GI50 [51]: 16.8 µM
TGI [51]: > 100 µM
GI50 [52]: 3.85 µM
TGI [52]: 24.5 µM
GI50 [53]: 10.2 µM
TGI [53]: 24.2 µM
GI50 [54]: 5.59 µM
TGI [54]: 35.9 µM
GI50 [55]: 3.7 µM
TGI [55]: 28.6 µM
GI50 [56]: 14.4 µM
TGI [56]: > 100 µM
GI50 [57]: 5.49 µM
TGI [57]: 39.8 µM
GI50 [58]: 19.9 µM
TGI [58]: > 100 µM
